{"source": "patent US11730720B2", "about": "“ALK5 inhibitors” (THERAVANCE BIOPHARMA R&D IP, LLC, priority 2018, dated 2023)", "key": {"[1]": {"molecular_target": "T1, recombinant human ALK5 (TGF-βR1) protein (Homo sapiens, UniProt P36897)", "T1 construct": "purchased Life Technologies PR9075A", "T1 sequence (P36897 34-503)": "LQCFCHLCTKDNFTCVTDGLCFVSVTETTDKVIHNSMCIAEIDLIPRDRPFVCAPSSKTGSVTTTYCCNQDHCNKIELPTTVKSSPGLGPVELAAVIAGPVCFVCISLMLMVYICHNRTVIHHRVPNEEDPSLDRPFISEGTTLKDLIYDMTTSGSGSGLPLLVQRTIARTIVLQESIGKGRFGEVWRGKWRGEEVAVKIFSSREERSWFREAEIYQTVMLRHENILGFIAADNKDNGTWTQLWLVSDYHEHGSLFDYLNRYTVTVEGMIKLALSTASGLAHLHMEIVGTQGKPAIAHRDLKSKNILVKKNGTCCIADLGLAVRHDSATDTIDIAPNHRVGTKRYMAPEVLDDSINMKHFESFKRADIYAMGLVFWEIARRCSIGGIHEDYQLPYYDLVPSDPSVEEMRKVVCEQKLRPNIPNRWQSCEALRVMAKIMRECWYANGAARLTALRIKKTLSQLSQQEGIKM", "assay": "Biochemical ALK5 (TGF-βR1) assay to measure pKi (LANCE Ultra ULight kinase assay)", "conditions": "apparent pKi, converted from pIC50 using the Cheng-Prusoff equation", "outline": "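TR-FRET kinase format: compound dose range 10 μM–25 pM equilibrated 60 min with human ALK5 and ULight-labelled topoisomerase 2α peptide in HEPES/MgCl2 buffer pH 7.5 with DTT. Reaction started with ATP (125 μM stock, 5× final), 60 min at 37° C, stopped with EDTA/Eu-anti-phospho antibody; pKi derived from pIC50 via Cheng-Prusoff.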"}, "[2]": {"test_system": "TGF-β-stimulated SMAD3 phosphorylation in BEAS-2B cells", "assay": "Cellular ALK5 potency assay, inhibition of TGF-β stimulated pSMAD3 formation in BEAS-2B cells", "format": "cell-based", "conditions": "Homo sapiens, inhibition of TGF-β (10 ng/mL) stimulated pSMAD3 formation, 1 hour compound incubation, read-out: BEAS2B pIC50 (converted)", "outline": "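Phospho-SMAD3 was quantified by AlphaLISA in lysates of human lung epithelial BEAS-2B cells. Compound was added 1 h (37 °C, HEPES/BSA-supplemented HBSS) before a 30 min challenge with 10 ng/mL TGF-β. Values are pIC50 relative to stimulated cells without compound.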"}}}
{"smiles": "Fc1ccc(Cl)cc1-c1[nH]cnc1-c1ccc2ncc(N3CCCNCC3)cc2c1", "note": "[Compound 17-6, 6-[5-(5-chloro-2-fluoro-phenyl)-1H-imidazol-4-yl]-3-(1,4-diazepan-1-yl)quinoline]", "values": [{"measurement": "Ki", "setting": "[1]", "result": "0.398 to 3.16", "unit": "nM"}, {"measurement": "IC50", "setting": "[2]", "result": "25.1 to 158", "unit": "nM"}]}
{"smiles": "Fc1ccc(Cl)cc1-c1[nH]cnc1-c1ccc2ncc(-c3cn[nH]c3)cc2n1", "note": "[Compound 2-17, 2-[5-(5-chloro-2-fluoro-phenyl)-1H-imidazol-4-yl]-7-(1H-pyrazol-4-yl)-1,5-naphthyridine]", "values": [{"measurement": "Ki", "setting": "[1]", "result": "0.0398 to 0.316", "unit": "nM"}, {"measurement": "IC50", "setting": "[2]", "result": "25.1 to 158", "unit": "nM"}]}
{"smiles": "CC(C)N1CC2CN(c3cnc4ccc(-c5c[nH]nc5-c5cc(Cl)ccc5F)nc4c3)CC21", "note": "(centres unmarked) [Compound 1-70, 2-(3-(5-chloro-2-fluorophenyl)-112-pyrazol-4-yl)-7-(6-isopropyl-3,6-diazabicyclo[3.2.0]heptan-3-yl)-1,5-naphthyridine]", "values": [{"measurement": "Ki", "setting": "[1]", "result": "0.0398 to 0.316", "unit": "nM"}, {"measurement": "IC50", "setting": "[2]", "result": "25.1 to 158", "unit": "nM"}]}
{"smiles": "COC(=O)[C@H]1CN(c2cnc3ccc(-c4c[nH]nc4-c4cc(Cl)ccc4F)nc3c2)CCN1C", "note": "[Compound 1-65, methyl (2R)-4-[6-[3-(5-chloro-2-fluoro-phenyl)-1H-pyrazol-4-yl]-1,5-naphthyridin-3-yl]-1-methyl-piperazine-2-carboxylate]", "values": [{"measurement": "Ki", "setting": "[1]", "result": "0.398 to 3.16", "unit": "nM"}, {"measurement": "IC50", "setting": "[2]", "result": "25.1 to 158", "unit": "nM"}]}
{"smiles": "Fc1ccc(Cl)cc1-c1n[nH]cc1-c1ccc2ncc(NCC3CCNC3)cc2n1", "note": "(centres unmarked) [Compound 1-16, 6-[3-(5-chloro-2-fluoro-phenyl)-1H-pyrazol-4-yl]-N-(pyrrolidin-3-ylmethyl)-1,5-naphthyridin-3-amine]", "values": [{"measurement": "Ki", "setting": "[1]", "result": "0.0398 to 0.316", "unit": "nM"}, {"measurement": "IC50", "setting": "[2]", "result": "25.1 to 158", "unit": "nM"}]}
{"smiles": "CN(C)C1CCN(c2cnc3ccc(-c4c[nH]nc4-c4ccc(F)c(F)c4)nc3c2)C1", "note": "(racemic) [Compound 8-5, rac-(3S)-1-[6-[3-(3,4-difluorophenyl)-1H-pyrazol-4-yl]-1,5-naphthyridin-3-yl]-N,N-dimethyl-pyrrolidin-3-amine]", "values": [{"measurement": "Ki", "setting": "[1]", "result": "0.398 to 3.16", "unit": "nM"}, {"measurement": "IC50", "setting": "[2]", "result": "25.1 to 158", "unit": "nM"}]}
{"smiles": "CNC(=O)[C@@H]1CN(c2cnc3ccc(-c4c[nH]nc4-c4cc(Cl)ccc4F)nc3c2)CCN1", "note": "[Compound 1-58, (2S)-4-[6-[3-(5-chloro-2-fluoro-phenyl)-1H-pyrazol-4-yl]-1,5-naphthyridin-3-yl]-N-methyl-piperazine-2-carboxamide]", "values": [{"measurement": "Ki", "setting": "[1]", "result": "0.0398 to 0.316", "unit": "nM"}, {"measurement": "IC50", "setting": "[2]", "result": "25.1 to 158", "unit": "nM"}]}
{"smiles": "CNC(=O)C1CN(c2cnc3ccc(-c4c[nH]nc4-c4cc(Cl)ccc4F)nc3c2)CCN1", "note": "(racemic) [Compound 1-51, rac-(2R)-4-[6-[3-(5-chloro-2-fluoro-phenyl)-1H-pyrazol-4-yl]-1,5-naphthyridin-3-yl]-N-methyl-piperazine-2-carboxamide]", "values": [{"measurement": "Ki", "setting": "[1]", "result": "0.0398 to 0.316", "unit": "nM"}, {"measurement": "IC50", "setting": "[2]", "result": "25.1 to 158", "unit": "nM"}]}
{"smiles": "Fc1ccc(Cl)cc1-c1n[nH]cc1-c1ccc2ncc(Nc3ccc(N4CCNCC4)cn3)cc2n1", "note": "[Compound 1-15, 6-(3-(5-chloro-2-fluorophenyl)-1H-pyrazol-4-yl)-N-(5-(piperazin-1-yl)pyridin-2-yl)-1,5-naphthyridin-3-amine]", "values": [{"measurement": "Ki", "setting": "[1]", "result": "0.0398 to 0.316", "unit": "nM"}, {"measurement": "IC50", "setting": "[2]", "result": "25.1 to 158", "unit": "nM"}]}
{"smiles": "Fc1ccc(Cl)cc1-c1n[nH]cc1-c1ccc2ncc(C3CCNC3)cc2n1", "note": "(centres unmarked) [Compound 1-99, 2-[3-(5-chloro-2-fluoro-phenyl)-1H-pyrazol-4-yl]-7-pyrrolidin-3-yl-1,5-naphthyridine]", "values": [{"measurement": "Ki", "setting": "[1]", "result": "3.98 to 31.6", "unit": "nM"}, {"measurement": "IC50", "setting": "[2]", "result": "200 to 1260", "unit": "nM"}]}
{"smiles": "Fc1ccc(-c2n[nH]cc2-c2ccc3ncc(C4=CCC(NCc5ccccc5)CC4)cc3n2)cc1F", "note": "(centres unmarked) [Compound 8-26, N-benzyl-4-[6-[3-(3,4-difluorophenyl)-1H-pyrazol-4-yl]-1,5-naphthyridin-3-yl]cyclohex-3-en-1-amine]", "values": [{"measurement": "Ki", "setting": "[1]", "result": "0.0398 to 0.316", "unit": "nM"}, {"measurement": "IC50", "setting": "[2]", "result": "25.1 to 158", "unit": "nM"}]}
{"smiles": "Fc1ccc(Cl)cc1-c1n[nH]cc1-c1ccc2ncc(NCCN3CCCC3)cc2n1", "note": "[Compound 1-14, 6-[3-(5-chloro-2-fluoro-phenyl)-1H-pyrazol-4-yl]-N-(2-pyrrolidin-1-ylethyl)-1,5-naphthyridin-3-amine]", "values": [{"measurement": "Ki", "setting": "[1]", "result": "0.0398 to 0.316", "unit": "nM"}, {"measurement": "IC50", "setting": "[2]", "result": "≤ 20", "unit": "nM"}]}
{"smiles": "Fc1ccc(Cl)cc1-c1n[nH]cc1-c1ccc2ncc(NCC3CNCCN3)cc2n1", "note": "(centres unmarked) [Compound 1-26, 6-[3-(5-chloro-2-fluoro-phenyl)-1H-pyrazol-4-yl]-N-(piperazin-2-ylmethyl)-1,5-naphthyridin-3-amine]", "values": [{"measurement": "Ki", "setting": "[1]", "result": "0.0398 to 0.316", "unit": "nM"}, {"measurement": "IC50", "setting": "[2]", "result": "25.1 to 158", "unit": "nM"}]}
